Results as given in ChEMBL document CHEMBL1201862, “PubChem BioAssay data set” (2004).
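Exposure lasted 48 hours, with cells grown in 96-well plates and compounds tested at five concentrations. GI50 is the concentration that inhibits growth by half.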 Activity calls are given as the source filed them. No stated cut-off is given here; in the data, active = GI50 up to about 1.1 µM and inactive = higher.

Tests used:
Assay in all cases: NCI-60 cell line screen, 48 h
[1] = tested on: ACHN
[2] = tested on: CAKI-1
[3] = tested on: EKVX
[4] = tested on: HOP-62
[5] = tested on: HT-29
[6] = tested on: Hs-578T
[7] = tested on: M14
[8] = tested on: MCF7
[9] = tested on: MDA-MB-435
[10] = tested on: MDA-N
[11] = tested on: MOLT-4
[12] = tested on: NCI-H226
[13] = tested on: NCI-H460
[14] = tested on: NCI-H522
[15] = tested on: SF-539
[16] = tested on: SK-MEL-2
[17] = tested on: SNB-75
[18] = tested on: SW-620
[19] = tested on: T47D

CC(NC(=O)C(N)CC(=O)O)NC(=O)N1CCOCC1 (stereo unspecified)
GI50 [1]: > 100 µM (inactive)
GI50 [2]: > 100 µM (inactive)
GI50 [3]: > 100 µM (inactive)
GI50 [4]: > 100 µM (inactive)
GI50 [5]: > 100 µM (inactive)
GI50 [6]: > 100 µM (inactive)
GI50 [7]: > 100 µM (inactive)
GI50 [8]: > 100 µM (inactive)
GI50 [9]: > 100 µM (inactive)
GI50 [10]: > 100 µM (inactive)
GI50 [11]: > 100 µM (inactive)
GI50 [12]: > 100 µM (inactive)
GI50 [13]: > 100 µM (inactive)
GI50 [14]: > 100 µM (inactive)
GI50 [15]: > 100 µM (inactive)
GI50 [16]: > 100 µM (inactive)
GI50 [17]: > 100 µM (inactive)
GI50 [18]: > 100 µM (inactive)

CP(=O)(O)C(N)c1ccccc1 (stereo unspecified)
GI50 [1]: > 100 µM (inactive)
GI50 [2]: > 100 µM (inactive)
GI50 [3]: > 100 µM (inactive)
GI50 [4]: > 100 µM (inactive)
GI50 [5]: > 100 µM (inactive)
GI50 [6]: > 100 µM (inactive)
GI50 [7]: > 100 µM (inactive)
GI50 [8]: > 100 µM (inactive)
GI50 [9]: > 100 µM (inactive)
GI50 [10]: > 100 µM (inactive)
GI50 [11]: > 100 µM (inactive)
GI50 [12]: > 100 µM (inactive)
GI50 [13]: > 100 µM (inactive)
GI50 [14]: > 100 µM (inactive)
GI50 [18]: > 100 µM (inactive)
GI50 [19]: > 100 µM (inactive)

CCOC(=O)C(C/C=C/CO)N(C)C(=O)OC(C)(C)C (stereo unspecified)
GI50 [1]: > 100 µM (inactive)
GI50 [2]: > 100 µM (inactive)
GI50 [3]: > 100 µM (inactive)
GI50 [4]: > 100 µM (inactive)
GI50 [5]: > 100 µM (inactive)
GI50 [6]: 53.5 µM (inactive)
GI50 [7]: > 100 µM (inactive)
GI50 [8]: > 100 µM (inactive)
GI50 [10]: > 100 µM (inactive)
GI50 [11]: > 100 µM (inactive)
GI50 [12]: > 100 µM (inactive)
GI50 [13]: > 100 µM (inactive)
GI50 [14]: 10.1 µM (inactive)
GI50 [15]: > 100 µM (inactive)
GI50 [16]: > 100 µM (inactive)
GI50 [17]: 50.9 µM (inactive)
GI50 [18]: > 100 µM (inactive)
GI50 [19]: > 100 µM (inactive)

CON(C)C(=O)C(Cc1ccccc1)NC(=O)OC(C)(C)C (stereo unspecified)
GI50 [1]: > 100 µM (inactive)
GI50 [3]: > 100 µM (inactive)
GI50 [4]: > 100 µM (inactive)
GI50 [5]: > 100 µM (inactive)
GI50 [6]: > 100 µM (inactive)
GI50 [7]: > 100 µM (inactive)
GI50 [8]: > 100 µM (inactive)
GI50 [9]: > 100 µM (inactive)
GI50 [10]: > 100 µM (inactive)
GI50 [11]: > 100 µM (inactive)
GI50 [12]: > 100 µM (inactive)
GI50 [13]: > 100 µM (inactive)
GI50 [15]: > 100 µM (inactive)
GI50 [17]: > 100 µM (inactive)
GI50 [18]: > 100 µM (inactive)
GI50 [19]: > 100 µM (inactive)

Cc1ccc(C(=O)C2C=C(c3ccc(C)cc3)SC3C=CCC32)cc1 (stereo unspecified)
GI50 [1]: 20.5 µM (inactive)
GI50 [2]: 18.9 µM (inactive)
GI50 [3]: 34.8 µM (inactive)
GI50 [4]: 20.3 µM (inactive)
GI50 [5]: 21.4 µM (inactive)
GI50 [6]: 26.1 µM (inactive)
GI50 [7]: 19.6 µM (inactive)
GI50 [9]: 14.4 µM (inactive)
GI50 [10]: 14.8 µM (inactive)
GI50 [11]: 12.1 µM (inactive)
GI50 [12]: 27.2 µM (inactive)
GI50 [13]: 16.9 µM (inactive)
GI50 [14]: 15.3 µM (inactive)
GI50 [15]: 17.9 µM (inactive)
GI50 [16]: 16.1 µM (inactive)
GI50 [18]: 15.8 µM (inactive)
GI50 [19]: 20.5 µM (inactive)

Clc1ccc(/C=N/C23CC4CC(CC(C4)C2)C3)c(Cl)c1
GI50 [1]: > 10 µM (inactive)
GI50 [2]: > 10 µM (inactive)
GI50 [3]: > 10 µM (inactive)
GI50 [4]: > 10 µM (inactive)
GI50 [5]: > 10 µM (inactive)
GI50 [6]: > 10 µM (inactive)
GI50 [7]: > 10 µM (inactive)
GI50 [9]: > 10 µM (inactive)
GI50 [10]: > 10 µM (inactive)
GI50 [11]: > 10 µM (inactive)
GI50 [12]: > 10 µM (inactive)
GI50 [13]: > 10 µM (inactive)
GI50 [14]: > 10 µM (inactive)
GI50 [15]: > 10 µM (inactive)
GI50 [16]: > 10 µM (inactive)
GI50 [17]: > 10 µM (inactive)
GI50 [18]: > 10 µM (inactive)
GI50 [19]: > 10 µM (inactive)

Cc1ccc(S(=O)(=O)NC(=O)NC(CCC(N)=O)C(=O)O)cc1 (stereo unspecified)
GI50 [1]: > 100 µM (inactive)
GI50 [4]: > 100 µM (inactive)
GI50 [5]: > 100 µM (inactive)
GI50 [6]: > 100 µM (inactive)
GI50 [7]: > 100 µM (inactive)
GI50 [8]: > 100 µM (inactive)
GI50 [10]: > 100 µM (inactive)
GI50 [11]: > 100 µM (inactive)
GI50 [13]: > 100 µM (inactive)
GI50 [14]: > 100 µM (inactive)
GI50 [15]: > 100 µM (inactive)
GI50 [16]: > 100 µM (inactive)
GI50 [17]: > 100 µM (inactive)
GI50 [18]: > 100 µM (inactive)
GI50 [19]: > 100 µM (inactive)

CC1=CC2(C)C=C[C@@H]1C(=O)[C@@]1(C)CC[C@@](O)(C(C)C)[C@H]1CC2
GI50 [1]: 17.6 µM (inactive)
GI50 [3]: 24.4 µM (inactive)
GI50 [4]: 20.2 µM (inactive)
GI50 [5]: 16.1 µM (inactive)
GI50 [6]: 25.4 µM (inactive)
GI50 [7]: 19.3 µM (inactive)
GI50 [8]: 28.4 µM (inactive)
GI50 [9]: 20.3 µM (inactive)
GI50 [10]: 21.8 µM (inactive)
GI50 [11]: 24.8 µM (inactive)
GI50 [12]: 23.4 µM (inactive)
GI50 [13]: 18.4 µM (inactive)
GI50 [15]: 18.9 µM (inactive)
GI50 [16]: 33.3 µM (inactive)
GI50 [17]: 20.9 µM (inactive)
GI50 [18]: 18.8 µM (inactive)
GI50 [19]: 25.8 µM (inactive)

C=CCN1C(=O)CC1N(CC=C)S(=O)(=O)c1ccc(C)cc1 (stereo unspecified)
GI50 [1]: > 100 µM (inactive)
GI50 [2]: > 100 µM (inactive)
GI50 [3]: > 100 µM (inactive)
GI50 [5]: > 100 µM (inactive)
GI50 [6]: > 100 µM (inactive)
GI50 [7]: > 100 µM (inactive)
GI50 [8]: > 100 µM (inactive)
GI50 [9]: > 100 µM (inactive)
GI50 [10]: > 100 µM (inactive)
GI50 [11]: > 100 µM (inactive)
GI50 [12]: > 100 µM (inactive)
GI50 [13]: > 100 µM (inactive)
GI50 [14]: > 100 µM (inactive)
GI50 [18]: > 100 µM (inactive)

COc1ccc(CCc2ccc3c(c2)OCO3)cc1
GI50 [1]: > 100 µM (inactive)
GI50 [2]: 75.5 µM (inactive)
GI50 [3]: 66.8 µM (inactive)
GI50 [4]: > 100 µM (inactive)
GI50 [5]: 28.7 µM (inactive)
GI50 [6]: 86.3 µM (inactive)
GI50 [7]: 49.8 µM (inactive)
GI50 [8]: 35.8 µM (inactive)
GI50 [9]: 19.6 µM (inactive)
GI50 [10]: 28.9 µM (inactive)
GI50 [11]: 34.7 µM (inactive)
GI50 [12]: 62.5 µM (inactive)
GI50 [13]: > 100 µM (inactive)
GI50 [14]: 51.3 µM (inactive)
GI50 [15]: 92 µM (inactive)
GI50 [16]: 31.5 µM (inactive)
GI50 [17]: > 100 µM (inactive)
GI50 [18]: 32.8 µM (inactive)

Cc1ccc(OCC2CO2)c(Br)c1 (stereo unspecified)
GI50 [1]: 5.5 µM (inactive)
GI50 [2]: 33.7 µM (inactive)
GI50 [3]: 13.8 µM (inactive)
GI50 [4]: 39.4 µM (inactive)
GI50 [5]: 12.7 µM (inactive)
GI50 [6]: 28.5 µM (inactive)
GI50 [7]: 34.1 µM (inactive)
GI50 [8]: 14.7 µM (inactive)
GI50 [9]: 18.7 µM (inactive)
GI50 [10]: 19.5 µM (inactive)
GI50 [11]: 7.83 µM (inactive)
GI50 [12]: 15.9 µM (inactive)
GI50 [13]: 21.9 µM (inactive)
GI50 [15]: 15 µM (inactive)
GI50 [18]: 12.7 µM (inactive)
GI50 [19]: 63.1 µM (inactive)

C/C(=C\CO)CC/C=C(\C)CNc1ccc([N+](=O)[O-])cc1
GI50 [1]: 80.4 µM (inactive)
GI50 [2]: 80.5 µM (inactive)
GI50 [3]: 24.8 µM (inactive)
GI50 [4]: > 100 µM (inactive)
GI50 [5]: 27.4 µM (inactive)
GI50 [6]: 16.6 µM (inactive)
GI50 [7]: 62.1 µM (inactive)
GI50 [8]: 40.6 µM (inactive)
GI50 [9]: 28.6 µM (inactive)
GI50 [11]: 1.93 µM (inactive)
GI50 [12]: 96.6 µM (inactive)
GI50 [13]: > 100 µM (inactive)
GI50 [14]: 18 µM (inactive)
GI50 [15]: 28.6 µM (inactive)
GI50 [16]: 20.4 µM (inactive)
GI50 [17]: 0.0219 µM (active)
GI50 [18]: 56.1 µM (inactive)
GI50 [19]: 11.6 µM (inactive)
